Data from US8741862B2, “PHD2 inhibition for blood vessel normalization, and uses thereof” (VIB VZW, priority 2009, dated 2014).
“And” between values parts separate entries of the source, which are not always exact repeats. Equal values may be shown once. Read-outs that look alike come from different tables or passages of the source. One block for each molecule: values may come before it.

How the values were obtained:
[1] = test system: Lewis Lung Carcinoma (LLC); assay: Response of LLC tumors to suboptimal doxorubicin chemotherapy in WT and PHD2+/− mice; conditions: doxorubicin 2.5 mg/kg 3×/week
[2] = Cornea pocket assay with pellets containing VEGF or FGF-2; assay type: in vivo, mouse
Text: We also performed cornea pocket assays and implanted pellets, containing VEGF or FGF-2, in endothelial PHD2Cre/+ mice.

B16 tumor = assay: Response of B16 tumors to suboptimal cisplatin chemotherapy in WT and PHD2+/− mice; assay type: in vivo, mouse; conditions: for anti-tumor effect in PHD2+/− mice / anti-tumor effect in WT mice: B16 tumor
Method: […] TUMOR MODELS: 5 105 B16F10.9 melanoma and 105 Lewis lung carcinoma (LLC) cells were injected subcutaneously into the right flank or foot pad, respectively. […] Circulating tumor cells were scored on 1 ml of peripheral blood upon red blood cell lysis.
[…] […] The mice were sacrificed at defined time intervals after cell inoculation or when tumors reached a maximum size of 2 cm3.

[3] = PHD2+/− hearts upon doxorubicin treatment
[4] = PHD2+/− hearts upon doxorubicin treatment, versus WT
[5] = cisplatin 2.5 mg/kg 3×/week, listed as Cisplatin

- capillary perfusion [3]: preserved
- oxidative stress (cardiac ROS) [3]: reduced
- Brain Natriuretic Peptide (BNP) expression [4]: lower levels
- interstitial fibrosis [4]: reduced interstitial fibrosis
- capillary perfusion (WT hearts upon doxorubicin treatment): not preserved
- ejection fraction (EF) (wild-type mice upon doxorubicin treatment): decreases
Molecule: COc1cccc2c1C(=O)c1c(O)c3c(c(O)c1C2=O)C[C@@](O)(C(=O)CO)C[C@@H]3O[C@H]1C[C@H](N)[C@H](O)[C@H](C)O1 [doxorubicin]
- cardiac hypertrophy (PHD1 and PHD3 deficient mice after 2 months of treatment): significant cardiac hypertrophy
- ejection fraction (EF) (PHD2+/− mice upon doxorubicin treatment): maintain or preserve the baseline EF levels
- cardiac damage (doxorubicin 2.5 mg/kg 3×/week for four weeks, PHD2+/− mice): protected against cardiac damage
- anti-tumor effect in PHD2+/− mice [1]: responsive
- anti-tumor effect in PHD2+/− mice ([1]; listed as Doxorubicin): reduced the volume of LLC (Lewis lung carcinoma) tumor
- anti-tumor effect in WT mice ([1]; WT mice): not effective

Molecule: FGF-2: growth factor implanted as pellet in cornea pocket assay
- branching points per mm2 ([2]; PHD2Cre/+ mice, N=4): 580±87 per mm2
- vessel area ([2]; PHD2Cre/+ mice, N=4): 33.4±4%
- branching points per mm2 ([2]; PHD2lox/+ mice, N=4): 511±48 per mm2

Molecule: N.N.[Cl][Pt][Cl] [cisplatin]
- anti-tumor effect in PHD2+/− mice (B16 tumor; cisplatin 2.5 mg/kg 3×/week): effective
- anti-tumor effect in PHD2+/− mice (B16 tumor; [5]): reduced the volume (A) and weight (B) of B16 tumor
- anti-tumor effect in WT mice (B16 tumor; cisplatin 2.5 mg/kg 3×/week): does not kill B16 tumor cells
- anti-tumor effect in WT mice (B16 tumor; [5]): not effective
- tumor size, smaller in PHD2+/− than WT mice (B16 tumor; cisplatin 2.5 mg/kg 3×/week, B16 tumors, 11 days after initiation of chemotherapy): 60%
- tumor apoptosis (active caspase 3) (B16 tumor; tumors implanted in PHD2+/− mice upon cisplatin treatment): increased
- tumor proliferation (B16 tumor; tumors implanted in PHD2+/− mice upon cisplatin treatment, compared to WT): reduced

Molecule: VEGF
- vessel area ([2]; PHD2Cre/+ mice, N=4): 23.2±1.6%
- vessel area ([2]; PHD2lox/+ mice, N=4): 27.7±2.3%
- branching points per mm2 ([2]; mouse, in vivo): 387±52 per mm2 and 345±60 per mm2
